Assays:
[1] = tested on: histamine-induced skin vascular permeability; assay: Inhibitory effect on histamine-induced vascular permeability in mice; format: in vivo, ICR mice; conditions: Mus musculus, po; 5 mg/kg intragastric 1 hour before modeling; histamine phosphate 1 ug/0.1 mL; Evans Blue absorbance at 610 nm; read-out: Inhibition rate (%)
Description: Intragastric administration was performed 1 hour before modeling. The model group was given the corresponding solvent. […] 10% sodium sulfide was used to depilate the back of mice (3 cm×3 cm). The mice were injected 1 ug/0.1 mL of histamine phosphate physiological saline solution into the depilation site one hour after the administration, and injected 0.25% Evans Blue solution 4 ml/kg from the tail vein immediately after the injection. After 30 minutes, the mice were dislocated and sacrificed. The blue-stained part of the skin was removed and perforated (diameter 15 mm), cut into pieces and soaked in 1 ml of acetone-saline (7:3) solution. After 24 h, it was centrifuged (3000 r/min, 10 min) to take the supernatant. The absorbance of the sample was measured with an ultraviolet spectrophotometer at a wavelength of 610 nm and a blank zero calibration with acetone-physiological saline solution.

hERG potassium channel = hERG potassium channel (Homo sapiens, UniProt Q12809); assay: hERG potassium channel activity test; format: biochemical
Sequence of hERG potassium channel (Q12809 whole entry): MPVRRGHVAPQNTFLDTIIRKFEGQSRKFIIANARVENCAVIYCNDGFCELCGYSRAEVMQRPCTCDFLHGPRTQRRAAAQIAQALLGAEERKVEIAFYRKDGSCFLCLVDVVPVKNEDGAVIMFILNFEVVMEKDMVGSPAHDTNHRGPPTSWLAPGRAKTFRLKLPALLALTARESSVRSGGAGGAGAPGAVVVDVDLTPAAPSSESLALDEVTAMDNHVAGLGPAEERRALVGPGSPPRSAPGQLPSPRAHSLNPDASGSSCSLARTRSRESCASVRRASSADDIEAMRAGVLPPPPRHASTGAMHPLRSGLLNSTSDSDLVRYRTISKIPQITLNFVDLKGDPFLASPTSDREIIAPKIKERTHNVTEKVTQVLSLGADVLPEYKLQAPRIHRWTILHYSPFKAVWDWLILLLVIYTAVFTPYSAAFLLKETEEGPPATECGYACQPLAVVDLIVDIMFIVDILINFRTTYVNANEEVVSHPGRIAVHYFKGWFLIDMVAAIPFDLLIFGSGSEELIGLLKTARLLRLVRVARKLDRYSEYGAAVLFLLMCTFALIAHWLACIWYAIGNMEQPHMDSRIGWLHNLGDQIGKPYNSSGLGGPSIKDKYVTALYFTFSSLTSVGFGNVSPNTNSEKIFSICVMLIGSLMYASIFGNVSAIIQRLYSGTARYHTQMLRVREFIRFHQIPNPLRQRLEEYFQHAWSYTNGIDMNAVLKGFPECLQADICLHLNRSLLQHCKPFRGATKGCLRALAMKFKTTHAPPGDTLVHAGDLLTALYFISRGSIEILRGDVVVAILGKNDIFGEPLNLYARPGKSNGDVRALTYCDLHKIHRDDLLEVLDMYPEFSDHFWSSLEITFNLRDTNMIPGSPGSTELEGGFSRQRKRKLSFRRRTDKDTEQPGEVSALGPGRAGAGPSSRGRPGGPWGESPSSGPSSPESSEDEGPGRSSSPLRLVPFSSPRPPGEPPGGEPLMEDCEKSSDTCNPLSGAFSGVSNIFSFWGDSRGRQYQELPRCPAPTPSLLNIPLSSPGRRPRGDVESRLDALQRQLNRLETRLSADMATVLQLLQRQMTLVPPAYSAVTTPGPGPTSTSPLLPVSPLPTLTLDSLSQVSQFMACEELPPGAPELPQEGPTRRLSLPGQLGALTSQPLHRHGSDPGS

[2] = tested on: pilocarpine-induced saliva secretion; assay: Pilocarpine-induced salivation in rats; conditions: 10 mg/kg intragastric; pilocarpine 1 mg/kg i.p. 15 minutes later; saliva collected 10 minutes
Description: Rats in each group were given corresponding drugs by intragastric administration. 15 minutes later, pilocarpine (1 mg/kg, dissolved in physiological saline) was injected intraperitoneally to induce saliva secretion. The rat was immediately anesthetized by intraperitoneal injection of 10% chloral hydrate. After the rat was anesthetized, the residual saliva in the oral cavity was taken out with a cotton ball in that the weighed cotton ball (M1) was placed in the oral cavity (two under the tongue and one for each on both sides). The cotton ball was taken out 10 minutes later and the weight of the cotton ball (M2) was immediately measured.
Inhibition rate=Saliva secretion in drug administration group/Saliva secretion in model group×100%

Row | Compound | inhibition in vivo at 5 mg/kg [1] [%] | IC50 (hERG potassium channel) [µM] | Inhibition rate (%) [2] [%]
1 | CC(C)(C(=O)O)c1ccc(CCCN2CCC(=C3c4ccccc4CCc4cc(Cl)ccc43)CC2)cc1 [Example 21, 2-(4-(3-(4-(2-chloro-10,11-dihydro-5H-dibenzo[a,d][7]cycloheptenyl-naphthylene)piperidine-1-yl)propyl)phenyl)-2-methylpropionic acid] | 42.6 | > 30 | 16.54
2 | CC(C)(C(=O)O)c1ccc(C#N)c(CCCN2CCC(=C3c4ccc(Cl)cc4CCc4cccnc43)CC2)c1 [Example 26] | 68.2 | > 30 | 13.28
3 | CC(C)(C(=O)O)c1ccc(C(O)CCCN2CCC(=C3c4ccc(Cl)cc4CCc4cccnc43)CC2)cc1 (stereo not drawn) [Example 29] | 64.3 | > 30 | 11.28

Reference: US20230140276A1, “TRICYCLIC COMPOUNDS, PREPARATION METHOD AND MEDICAL USE THEREOF” (HEFEI INSTITUTE OF PHARMACEUTICAL INDUSTRY CO., LTD., priority 2020, published 2023)
